{"source": "patent US20040133936A1", "about": "“Enzyme” (priority 2000, published 2004)", "key": {"[1]": {"molecular_target": "T1, native enzyme (myrosinase) from white mustard seed (Sinapis alba) (Sinapis alba, UniProt P29736)", "T1 construct": "the native enzyme from white mustard seed (Sinapis alba) has been crystallised; host or cells: white mustard seed", "T1 sequence (P29736 whole entry)": "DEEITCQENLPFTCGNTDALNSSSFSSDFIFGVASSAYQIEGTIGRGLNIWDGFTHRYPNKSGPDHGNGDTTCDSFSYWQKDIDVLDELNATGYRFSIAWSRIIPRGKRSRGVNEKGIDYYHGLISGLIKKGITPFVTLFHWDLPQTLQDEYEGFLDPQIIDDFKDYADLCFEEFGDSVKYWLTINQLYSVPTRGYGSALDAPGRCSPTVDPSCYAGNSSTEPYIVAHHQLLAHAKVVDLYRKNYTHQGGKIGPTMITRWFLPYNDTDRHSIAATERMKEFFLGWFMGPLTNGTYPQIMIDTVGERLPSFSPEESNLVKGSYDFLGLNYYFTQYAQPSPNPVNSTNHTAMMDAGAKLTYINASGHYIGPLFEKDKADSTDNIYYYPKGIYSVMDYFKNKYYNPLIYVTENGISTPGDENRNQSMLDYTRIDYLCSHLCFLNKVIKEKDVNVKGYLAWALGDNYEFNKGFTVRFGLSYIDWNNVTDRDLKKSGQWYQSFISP", "settings": "stable glycosyl-enzyme intermediate at the active site; cited from earlier work"}, "[2]": {"molecular_target": "T2, myrosinase from the cabbage aphid (Brevicoryne brassicae) (Brevicoryne brassicae, UniProt Q95X01)", "T2 construct": "The myrosinase from freeze-dried aphids was purified in five steps; from tissue; host or cells: whole freeze-dried Brevicoryne brassicae aphids", "T2 sequence (Q95X01 1-464)": "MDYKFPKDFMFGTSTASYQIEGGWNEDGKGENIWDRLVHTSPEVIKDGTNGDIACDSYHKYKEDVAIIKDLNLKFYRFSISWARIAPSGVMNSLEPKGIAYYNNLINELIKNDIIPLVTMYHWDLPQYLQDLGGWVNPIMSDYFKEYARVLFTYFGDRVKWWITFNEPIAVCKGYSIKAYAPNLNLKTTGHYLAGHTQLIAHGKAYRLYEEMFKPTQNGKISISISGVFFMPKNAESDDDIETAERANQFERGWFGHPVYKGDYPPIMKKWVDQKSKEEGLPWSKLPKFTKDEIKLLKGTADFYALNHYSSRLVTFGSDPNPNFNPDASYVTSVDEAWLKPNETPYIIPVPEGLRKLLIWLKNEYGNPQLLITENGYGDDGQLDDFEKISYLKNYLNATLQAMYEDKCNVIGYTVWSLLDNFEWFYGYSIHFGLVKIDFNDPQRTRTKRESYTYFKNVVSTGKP", "assay": "Kinetic studies of aphid myrosinase (glucose released by glucosinolate hydrolysis)", "assay_type": "biochemical", "settings": "for Km: substrate, read-out: apparent Km of the aphid myrosinase", "method": "(§1) An assay based on the determination of glucose released by the hydrolysis of 2-propenyl glucosinolate (sinigrin) by the aphid myrosinase was used routinely to determine enzyme activity during protein purification. GOD-Perid test reagents were purchased from Boehringer Mannheim.\n(§2) Enzyme solution and sinigrin (1.08 mM) in 500 μl of sodium citrate buffer (100 mM, pH 5.5) was incubated at 30° C. for 20 min. The reaction was stopped by addition of 40 μl 3M HCl (aq) and GOD-PERID reagent (2.5 ml) added to the reaction mixture and incubated for 15 min at 37° C. The optical density was read at 346 nm and the glucose concentration calculated from a calibration graph.\nThe present inventors have performed a number of kinetic studies on the myrosinase from the cabbage aphid (Brevicoryne brassicae) which they have characterised. […] Like the cabbage aphid, the turnip aphid (Lipaphis erysimi) myrosinase was not activated by ascorbate in the concentration range 0.1-20 mM. The KM for sinigrin is 0.42 mM for the white mustard (Sinapis alba) myrosinase."}, "[3]": {"molecular_target": "white mustard (Sinapis alba) myrosinase (Sinapis alba, UniProt P29736)", "sequence (P29736 whole entry)": "as the sequence (P29736 whole entry) above", "assay": "KM of white mustard myrosinase", "assay_type": "biochemical", "settings": "substrate"}, "[4]": {"tested_on": "myrosinase from the mustard plant Brassica nigra", "settings": "substrates 2-propenyl and 2-hydroxy-3-butenyl glucosinolate; cited from earlier work"}, "[5]": {"molecular_target": "T3, myrosinase from the cabbage aphid B. brassicae (Brevicoryne brassicae, UniProt Q95X01)", "T3 sequence (Q95X01 1-464)": "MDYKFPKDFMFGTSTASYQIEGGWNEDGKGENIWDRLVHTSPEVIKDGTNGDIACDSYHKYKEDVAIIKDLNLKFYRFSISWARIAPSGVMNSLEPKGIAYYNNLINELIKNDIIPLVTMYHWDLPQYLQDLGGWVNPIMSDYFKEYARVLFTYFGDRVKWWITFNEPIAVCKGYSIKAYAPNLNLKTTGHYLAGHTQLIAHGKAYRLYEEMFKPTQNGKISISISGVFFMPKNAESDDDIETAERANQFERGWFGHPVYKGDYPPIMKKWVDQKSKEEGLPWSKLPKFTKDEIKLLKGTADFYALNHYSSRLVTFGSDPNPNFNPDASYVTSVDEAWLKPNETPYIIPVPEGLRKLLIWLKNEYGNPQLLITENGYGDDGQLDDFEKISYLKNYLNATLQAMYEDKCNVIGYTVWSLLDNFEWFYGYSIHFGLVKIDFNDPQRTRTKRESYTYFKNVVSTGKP", "settings": "substrates 2-propenyl and 2-hydroxy-3-butenyl glucosinolate; cited from earlier work"}, "[6]": {"tested_on": "plant myrosinase", "settings": "cited from earlier work"}, "[7]": {"tested_on": "turnip aphid (Lipaphis erysimi) myrosinase", "assay": "Ascorbate activation of turnip aphid myrosinase", "assay_type": "biochemical", "settings": "concentration range 0.1-20 mM"}, "[8]": {"assay": "Myrosinase micro assay (glucose released by hydrolysis of sinigrin)", "assay_type": "biochemical", "settings": "sinigrin 1.08 mM, pH 5.5, 30° C.", "method": "as §1\nas §2, with “ml) was” for “ml)”"}}}
{"molecule": "O=S(=O)(O)ON=C(Cc1ccccc1)S[C@@H]1O[C@H](CO)[C@@H](O)[C@H](O)[C@H]1F", "note": "[2-deoxy-2-fluoroglucotropaeolin]", "values": [{"measurement": "inhibition of the enzyme", "setting": "[1]", "value": "potent inhibitor"}, {"measurement": "Ki", "setting": "[2]", "value": "extremely low"}, {"measurement": "type of inhibition", "setting": "[2]", "value": "competitively inhibited"}]}
{"molecule": "C=CC/C(=N/OS(=O)(=O)O)S[C@@H]1O[C@H](CO)[C@@H](O)[C@H](O)[C@H]1O", "note": "[2-propenylglucosinolate]", "values": [{"measurement": "Km", "setting": "[2]", "value": 613, "unit": "µM"}, {"measurement": "Km", "setting": "[3]", "value": 420, "unit": "µM"}]}
{"molecule": "OC[C@H]1NC[C@@H](O)[C@@H]1O", "note": "[AB1, 1,4-dideoxy-1,4-imino-D-arabinitol]", "values": [{"measurement": "inhibition of plant myrosinase", "setting": "[4]", "value": "not significantly"}, {"measurement": "inhibition of aphid myrosinase", "setting": "[5]", "value": "inhibited"}]}
{"molecule": "OC[C@@H]1[C@@H](O)[C@H](O)[C@@H]2[C@@H](O)CCN21", "note": "[Alexine]", "values": [{"measurement": "inhibition of plant myrosinase", "setting": "[4]", "value": "not significantly"}, {"measurement": "inhibition of aphid myrosinase", "setting": "[5]", "value": "inhibited"}]}
{"molecule": "O=C1O[C@H](CO)[C@@H](O)[C@H](O)[C@H]1O", "note": "[D-glucono-β-lactone]", "values": [{"measurement": "inhibition of plant myrosinase", "setting": "[6]", "value": "poor inhibitors"}]}
{"molecule": "OC[C@H]1N[C@H](CO)[C@@H](O)[C@@H]1O", "note": "[DMDP, (2R, 5R)-dihydroxymethyl-(3R,4R)-dihydroxypyrrolidine]", "values": [{"measurement": "inhibition of plant myrosinase", "setting": "[4]", "value": "effectively inhibited"}, {"measurement": "inhibition of aphid myrosinase", "setting": "[5]", "value": "effectively inhibited"}]}
{"molecule": "OC[C@H]1NC[C@H](O)[C@@H](O)[C@@H]1O", "note": "[DNJ, 1-deoxynojirimycin]", "values": [{"measurement": "inhibition of plant myrosinase", "setting": "[4]", "value": "not significantly"}, {"measurement": "inhibition of aphid myrosinase", "setting": "[5]", "value": "inhibited"}]}
{"molecule": "O=C1O[C@H]([C@@H](O)CO)C(O)=C1O", "note": "[ascorbate, ascorbic acid]", "values": [{"measurement": "inhibition of plant myrosinases", "setting": "[6]; high concentrations", "value": "inhibited"}, {"measurement": "activation of plant myrosinases", "setting": "[6]; low concentrations", "value": "activated"}, {"measurement": "activation by ascorbate", "setting": "[7]", "value": "not activated"}, {"measurement": "activation by ascorbate", "setting": "[2]; concentration range 0.1-20 mM", "value": "not activated"}]}
{"molecule": "O=S(=O)(O)O/N=C(\\Cc1ccccc1)S[C@@H]1O[C@H](CO)[C@@H](O)[C@H](O)[C@H]1O", "note": "[benzyl glucosinolate]", "values": [{"measurement": "Km", "setting": "[2]", "value": 915, "unit": "µM"}]}
{"molecule": "O[C@H]1[C@H](O)[C@@H](O)CN2CC[C@H](O)[C@H]12", "note": "[castanospermine]", "values": [{"measurement": "inhibition of plant myrosinase", "setting": "[4]", "value": "effectively inhibited"}, {"measurement": "inhibition of aphid myrosinase", "setting": "[5]", "value": "effectively inhibited"}]}
{"molecule": "Pure aphid myrosinase: myrosinase enzyme purified to homogeneity from Brevicoryne brassicae (SEQ ID NO. 1) (protein, listed as Brevicoryne brassicae) MDYKFPKDFMFGTSTASYQIEGGWNEDGKGENIWDRLVHTSPEVIKDGTNGDIACDSYHKYKEDVAIIKDLNLKFYRFSISWARIAPSGVMNSLEPKGIAYYNNLINELIKNDIIPLVTMYHWDLPQYLQDLGGWVNPIMSDYFKEYARVLFTYFGDRVKWWITFNEPIAVCKGYSIKAYAPNLNLKTTGHYLAGHTQLIAHGKAYRLYEEMFKPTQNGKISISISGVFFMPKNAESDDDIETAERANQFERGWFGHPVYKGDYPPIMKKWVDQKSKEEGLPWSKLPKFTKDEIKLLKGTADFYALNHYSSRLVTFGSDPNPNFNPDASYVTSVDEAWLKPNETPYIIPVPEGLRKLLIWLKNEYGNPQLLITENGYGDDGQLDDFEKISYLKNYLNATLQAMYEDKCNVIGYTVWSLLDNFEWFYGYSIHFGLVKIDFNDPQRTRTKRESYTYFKNVVSTGKP", "values": [{"measurement": "Specific activity", "setting": "[8]", "value": 20.000, "unit": "µmol/mg/min"}]}
